# Results: US6583180B2, “Glucocorticoid receptor modulators” (Abbott Laboratories, priority 2001, dated 2003)
# Target: T1, progesterone receptor (PR) (Homo sapiens, UniProt P06401)
# T1 sequence (P06401 1-933): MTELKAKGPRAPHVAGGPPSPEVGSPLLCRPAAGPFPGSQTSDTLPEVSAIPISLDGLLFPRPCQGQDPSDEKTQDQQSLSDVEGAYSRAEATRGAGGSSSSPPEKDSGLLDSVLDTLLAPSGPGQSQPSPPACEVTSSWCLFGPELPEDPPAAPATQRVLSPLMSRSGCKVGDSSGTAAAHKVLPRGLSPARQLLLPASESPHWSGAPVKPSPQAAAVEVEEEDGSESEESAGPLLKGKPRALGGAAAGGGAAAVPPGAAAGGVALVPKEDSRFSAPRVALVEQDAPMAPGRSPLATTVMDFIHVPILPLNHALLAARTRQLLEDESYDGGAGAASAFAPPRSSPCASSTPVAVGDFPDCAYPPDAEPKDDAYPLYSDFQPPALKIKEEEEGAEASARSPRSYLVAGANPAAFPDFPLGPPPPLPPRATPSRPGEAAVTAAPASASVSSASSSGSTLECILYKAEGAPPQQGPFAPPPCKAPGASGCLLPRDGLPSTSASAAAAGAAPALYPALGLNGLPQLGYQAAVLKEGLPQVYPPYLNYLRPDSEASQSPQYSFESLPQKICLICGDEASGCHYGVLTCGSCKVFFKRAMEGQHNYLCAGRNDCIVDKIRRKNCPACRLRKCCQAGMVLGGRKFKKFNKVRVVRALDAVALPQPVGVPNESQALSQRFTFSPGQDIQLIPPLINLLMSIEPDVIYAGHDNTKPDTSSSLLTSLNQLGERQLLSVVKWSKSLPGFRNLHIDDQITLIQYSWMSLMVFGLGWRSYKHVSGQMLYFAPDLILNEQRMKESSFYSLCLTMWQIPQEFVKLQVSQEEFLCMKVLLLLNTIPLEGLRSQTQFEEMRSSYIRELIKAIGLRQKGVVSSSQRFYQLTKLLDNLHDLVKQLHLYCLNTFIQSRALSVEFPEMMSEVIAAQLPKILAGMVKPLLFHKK
# Test: Radioligand binding assay for progesterone receptor (similar protocol);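 further: radioligand binding measured with cytosol preparations containing the human progesterone receptor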
# Conditions: not given
row,Structure (SMILES),IC50 [nM]
1,"Cc1c(NS(C)(=O)=O)cccc1N(Cc1ccc(Oc2ccc(CCC(=O)O)cc2)cc1)Cc1ccc(F)cc1F [Example 50, N-{3-[(4-(4-(2-carboxyethyl)phenoxy)benzyl)(2,4-difluorobenzyl)amino]-2-methylphenyl}methanesulfonamide]",190
2,"Cc1c(NS(C)(=O)=O)cccc1N(Cc1ccc(Oc2ccc(CCC(=O)O)cc2)cc1)Cc1ccc(Cl)cc1F [Example 86, 3-(4-{4-[((4-chloro-2-fluorobenzyl){2-methyl-3-[(methylsulfonyl)amino]phenyl}amino)methyl]phenoxy}phenyl)propanoic acid]",216
3,"Cc1c(NS(C)(=O)=O)cccc1N(Cc1ccc(F)cc1F)Cc1ccc(F)cc1F [Example 24, N-{3-[bis(2,4-difluorobenzyl)amino]-2-methylphenyl}methanesulfonamide]",2590

# More lines, now with the values ahead:
row,IC50 [nM],Structure (SMILES)
1,4050,"Cc1c(NS(C)(=O)=O)cccc1N(Cc1ccccc1)Cc1ccc(F)cc1 [Example 9, N-{3-[benzyl(4-fluorobenzyl)amino]-2-methylphenyl}methanesulfonamide]"
2,772,"COCOc1ccc(Oc2ccc(CN(Cc3ccccc3)c3cccc(NS(C)(=O)=O)c3C)cc2)cc1 [Example 97, N-[3-(benzyl{4-[4-(methoxymethoxy)phenoxy]benzyl}amino)-2-methylphenyl]methanesulfonamide]"
3,78.3,"Cc1c(NS(C)(=O)=O)cccc1N(Cc1ccc(Br)cc1)Cc1ccc(Oc2ccccc2)cc1 [Example 103, N-{3-[(4-bromobenzyl)(4-phenoxybenzyl)amino]-2-methylphenyl}methanesulfonamide]"
4,246,"Cc1c(NS(C)(=O)=O)cccc1N(Cc1ccccc1)Cc1ccc(Oc2cccc(OCC(=O)O)c2)cc1 [Example 62, (3-{4-[(benzyl{2-methyl-3-[(methylsulfonyl)amino]phenyl}amino)methyl]phenoxy}phenoxy)acetic acid]"

# Target: T2, Human glucocorticoid receptors (Homo sapiens, UniProt P04150)
# T2 construct: made in house; host or cells: Sf9 insect cells, recombinant baculovirus (BAC-TO-BAC)
# T2 sequence (P04150 1-777): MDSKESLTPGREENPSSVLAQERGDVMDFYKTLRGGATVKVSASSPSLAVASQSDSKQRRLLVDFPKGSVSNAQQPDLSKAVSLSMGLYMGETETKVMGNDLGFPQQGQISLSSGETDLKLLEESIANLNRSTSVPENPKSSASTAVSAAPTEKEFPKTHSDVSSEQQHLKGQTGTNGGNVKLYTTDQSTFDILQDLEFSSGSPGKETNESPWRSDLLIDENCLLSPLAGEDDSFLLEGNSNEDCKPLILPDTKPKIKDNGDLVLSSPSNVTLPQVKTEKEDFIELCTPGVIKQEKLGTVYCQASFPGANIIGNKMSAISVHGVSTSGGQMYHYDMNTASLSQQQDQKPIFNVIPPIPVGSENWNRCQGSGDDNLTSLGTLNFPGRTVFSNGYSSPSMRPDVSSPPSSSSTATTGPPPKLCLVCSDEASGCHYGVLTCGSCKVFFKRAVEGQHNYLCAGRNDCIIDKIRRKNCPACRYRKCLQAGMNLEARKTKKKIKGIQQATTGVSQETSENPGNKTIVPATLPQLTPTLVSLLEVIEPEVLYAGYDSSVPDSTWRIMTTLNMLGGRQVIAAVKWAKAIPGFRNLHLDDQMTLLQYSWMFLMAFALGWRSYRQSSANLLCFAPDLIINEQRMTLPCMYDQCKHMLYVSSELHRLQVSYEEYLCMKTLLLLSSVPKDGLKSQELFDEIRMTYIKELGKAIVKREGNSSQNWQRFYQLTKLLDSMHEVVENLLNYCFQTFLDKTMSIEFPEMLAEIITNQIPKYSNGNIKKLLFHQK
# Test: Radioligand filter binding assay, displacement of 3[H]-dexamethasone from hGR
# Conditions: read-out: GR Binding (% Inhibition at 1.7 μM)
# Summary of the method: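 Recombinant hGR extract from baculovirus-infected Sf9 cells (final ~1 nM receptor) incubated with ³H-dexamethasone and test compound dilutions in duplicate, EDTA/phosphate pH 8 buffer with MTG, overnight (15-20 h) at +4° C. Bound label collected on PEI-treated GF/B filters and scintillation-counted; IC50 from four-parameter fit of corrected cpm.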
row,Structure (SMILES),inhibition at 1.7 µM [%]
1,"COc1ccc(CN(Cc2ccccc2C#N)c2cccc(NS(C)(=O)=O)c2C)c(F)c1 [Example 21, N-{3-[(2-cyanobenzyl)(2-fluoro-4-methoxybenzyl)amino]-2-methylphenyl}methanesulfonamide]",71.5
2,"CCOC(=O)CN(C)C(=O)CCCOc1cccc(Oc2ccc(CN(Cc3ccccc3)c3cccc(NS(C)(=O)=O)c3C)cc2)c1 [Example 239, ethyl N-[4-(3-{4-[(benzyl{2-methyl-3-[(methylsulfonyl)amino]phenyl}amino)methyl]phenoxy}phenoxy)butanoyl]-N-methylglycinate]",93.4
3,"Cc1c(NS(C)(=O)=O)cccc1N(Cc1ccc(Oc2ccc(Cl)c(OCC(=O)O)c2)cc1)Cc1ccccc1F [Example 306, (2-chloro-5-(4-(((2-fluorobenzyl)(2-methyl-3-((methylsulfonyl)amino)phenyl)amino)methyl)phenoxy)phenoxy)acetic acid]",97
4,"Cc1c(NS(C)(=O)=O)cccc1N(Cc1ccc(Oc2ccc(Cl)c(OCC(=O)O)c2)cc1)Cc1ccc(Cl)cc1Cl [Example 309, (2-chloro-5-(4-(((2,4-dichlorobenzyl)(2-methyl-3-((methylsulfonyl)amino)phenyl)amino)methyl)phenoxy)phenoxy)acetic acid]",97.4
5,"Cc1c(NS(C)(=O)=O)cccc1N(Cc1ccc(Oc2ccc(Cl)c(OCC(=O)O)c2)cc1)Cc1ccccc1Br [Example 307, (5-(4-(((2-bromobenzyl)(2-methyl-3-((methylsulfonyl)amino)phenyl)amino)methyl)phenoxy)-2-chlorophenoxy)acetic acid]",97
6,"Cc1c(NS(C)(=O)=O)cccc1N(Cc1ccc(OCc2ccc3c(c2)OCO3)cc1)Cc1ccc(F)cc1F [Example 156, N-{3-[[4-(1,3-benzodioxol-5-ylmethoxy)benzyl](2,4-difluorobenzyl)amino]-2-methylphenyl}methanesulfonamide]",94.9
7,"Cc1c(NS(C)(=O)=O)cccc1N(Cc1ccccc1)Cc1ccc(Oc2ccc(OCC(=O)N[C@@H](CO)C(=O)O)cc2)cc1 [Example 275, N-[(4-{4-[(benzyl{2-methyl-3-[(methylsulfonyl)amino]phenyl}amino)methyl]phenoxy}phenoxy)acetyl]-L-serine]",90.5
8,"Cc1c(NS(C)(=O)=O)cccc1N(Cc1ccc(Oc2ccc(Cl)c(OCC(=O)O)c2)cc1)Cc1ccc(Cl)cc1F [Example 310, (2-chloro-5-(4-(((4-chloro-2-fluorobenzyl)(2-methyl-3-((methylsulfonyl)amino)phenyl)amino)methyl)phenoxy)phenoxy)acetic acid]",97.5
9,"Cc1c(NS(C)(=O)=O)cccc1N(Cc1ccccc1)Cc1ccc(Oc2ccc(OCCCC(=O)N[C@@H](CCC(=O)O)C(=O)O)cc2)cc1 [Example 255, N-[4-(4-{4-[(benzyl{2-methyl-3-[(methylsulfonyl)amino]phenyl}amino)methyl]phenoxy}phenoxy)butanoyl]-L-glutamic acid]",93.6

# Other lines, results leading:
row,inhibition at 1.7 µM [%],Structure (SMILES)
1,96.7,"Cc1c(NS(C)(=O)=O)cccc1N(Cc1ccccc1)Cc1ccc(C(=O)c2cccc(OCCN3CCCC3=O)c2)cc1 [Example 248, N-{3-[benzyl(4-{3-[2-(2-oxopyrrolidin-1-yl)ethoxy]benzoyl}benzyl)amino]-2-methylphenyl}methanesulfonamide]"
2,90.1,"Cc1c(NS(C)(=O)=O)cccc1N(Cc1ccccc1)Cc1ccc(Oc2cccc(OC[C@@H]3CCC(=O)N3)c2)cc1 [Example 278, N-(3-{benzyl[4-(3-{[(2S)-5-oxopyrrolidin-2-yl]methoxy}phenoxy)benzyl]amino}-2-methylphenyl)methanesulfonamide]"
3,96.9,"Cc1c(NS(C)(=O)=O)cccc1N(Cc1ccccc1)Cc1ccc(Oc2cccc(OC3CCOC3=O)c2)cc1 (centres unmarked) [Example 112, N-{3-[benzyl(4-{3-[(2-oxotetrahydrofuran-3-yl)oxy]phenoxy}benzyl)amino]-2-methylphenyl}methanesulfonamide]"
4,89.7,"Cc1c(NS(C)(=O)=O)cccc1N(Cc1ccccc1)Cc1ccc(Oc2cccc(OCC3(C)COC3)c2)cc1 [Example 283, N-{3-[benzyl(4-{3-[(3-methyloxetan-3-yl)methoxy]phenoxy}benzyl)amino]-2-methylphenyl}methanesulfonamide]"
5,96.4,"Cc1c(NS(C)(=O)=O)cccc1N(Cc1ccccc1)Cc1ccc(Oc2cccc(OC(CCO)C(=O)O)c2)cc1 (centres unmarked) [Example 113, 2-(3-{4-[(benzyl{2-methyl-3-[(methylsulfonyl)amino]phenyl}amino)methyl]phenoxy}phenoxy)-4-hydroxybutanoic acid]"
6,92.6,"Cc1c(NS(C)(=O)=O)cccc1N(Cc1ccccc1)Cc1ccc(Oc2cccc(OC3CCC(C(=O)O)CC3)c2)cc1 (centres unmarked) [Example 286, 4-(3-{4-[(benzyl{2-methyl-3-[(methylsulfonyl)amino]phenyl}amino)methyl]phenoxy}phenoxy)cyclohexanecarboxylic acid]"
7,96.9,"COC(=O)NCCOc1cccc(Oc2ccc(CN(Cc3ccccc3)c3cccc(NS(C)(=O)=O)c3C)cc2)c1 [Example 82, methyl 2-(3-{4-[(benzyl{2-methyl-3-[(methylsulfonyl)amino]phenyl}amino)methyl]phenoxy}phenoxy)ethylcarbamate]"
